According to ChEMBL document CHEMBL1149953 (Bioorg Med Chem Lett, 1996):

Columns and labels:
[1] = target: T1, Type-1 angiotensin II receptor B (Rattus norvegicus, UniProt P29089); assay: In vitro ability to displace the specific binding of [125I]-A II from receptors in rat liver membrane(type 1 receptor)
T1 sequence (P29089 whole entry): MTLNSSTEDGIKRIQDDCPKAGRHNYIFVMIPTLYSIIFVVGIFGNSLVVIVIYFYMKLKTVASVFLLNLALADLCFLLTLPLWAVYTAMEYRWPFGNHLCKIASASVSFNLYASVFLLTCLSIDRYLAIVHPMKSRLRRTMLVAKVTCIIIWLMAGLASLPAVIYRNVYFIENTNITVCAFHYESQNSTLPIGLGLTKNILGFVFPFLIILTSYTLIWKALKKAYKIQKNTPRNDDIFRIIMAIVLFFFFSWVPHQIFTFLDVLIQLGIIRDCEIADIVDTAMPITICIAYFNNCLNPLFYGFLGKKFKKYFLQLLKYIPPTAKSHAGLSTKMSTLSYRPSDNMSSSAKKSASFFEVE

Rattus norvegicus [2] = assay: In vivo potency to inhibit the pressor response induced by angiotensin II (100ng/Kg, iv) in conscious normotensive rat at 6 hours after administration of 3 mg/kg, po; assay type: functional; settings: for inhibition in vivo at 3 mg/kg: Rattus norvegicus, po, 6 h
Rattus norvegicus [3] = assay: Compound was tested for antihypertensive effect in renal hypertensive rats at 10 mg/kg, po expressed as percent reduction in blood pressure; assay type: functional
Rattus norvegicus [4] = assay: In vivo potency to inhibit the pressor response induced by angiotensin II (100ng/Kg, iv) in conscious normotensive rat at 24 hours after administration of 3 mg/kg, po; assay type: functional; settings: for inhibition in vivo at 3 mg/kg: Rattus norvegicus, po, 24 h
Rattus norvegicus [5] = assay: Compound was tested for antihypertensive effect in renal hypertensive rats at 3 mg/kg, po expressed as percent reduction in blood pressure; assay type: functional
Rattus norvegicus [6] = assay: Compound was tested for antihypertensive effect in renal hypertensive rats at 1 mg/kg, po expressed as percent reduction in blood pressure; assay type: functional
Rattus norvegicus [7] = assay: In vivo potency to inhibit the pressor response induced by angiotensin II (100ng/Kg, iv) in conscious normotensive rat at 24 hours after administration of 1 mg/kg, po; assay type: functional
Rattus norvegicus [8] = assay: In vivo potency to inhibit the pressor response induced by angiotensin II (100ng/Kg, iv) in conscious normotensive rat at 6 hours after administration of 1 mg/kg, po; assay type: functional
Rattus norvegicus [9] = assay: In vivo potency to inhibit the pressor response induced by angiotensin II (100ng/Kg, iv) in conscious normotensive rat at 6 hours after administration of 0.3 mg/kg, po; assay type: functional
Rattus norvegicus [10] = assay: In vivo potency to inhibit the pressor response induced by angiotensin II (100ng/Kg, iv) in conscious normotensive rat at 24 hours after administration of 0.3 mg/kg, po; assay type: functional
Rattus norvegicus [11] = assay: Antihypertensive effect as reduction in blood pressure in renal hypertensive rats at 10 mg/kg dose specified administered perorally; assay type: functional; design: scale not given: the % may be the effect or the level left; settings: route oral
Rattus norvegicus [12] = assay: In vivo potency to inhibit the pressor responses induced by angiotensin II (100ng/kg, iv) in conscious normotensive rat at 1 mg/kg dose specified 24 hr after peroral administration; assay type: functional; settings: route oral
Rattus norvegicus [13] = assay: In vivo potency to inhibit the pressor responses induced by angiotensin II (100ng/kg, iv) in conscious normotensive rat at 10 mg/kg dose specified 6 hr upon peroral administration; assay type: functional; settings: route oral
Rattus norvegicus [14] = assay: In vivo potency to inhibit the pressor responses induced by angiotensin II (100ng/kg, iv) in conscious normotensive rat at 10 mg/kg dose specified 24 hr after peroral administration; assay type: functional; settings: route oral
Rattus norvegicus [15] = assay: In vivo potency to inhibit the pressor responses induced by angiotensin II (100ng/kg, iv) in conscious normotensive rat at 1 mg/kg dose specified 6 hr upon peroral administration; assay type: functional; settings: route oral
Rattus norvegicus [16] = assay: In vivo potency to inhibit the pressor responses induced by angiotensin II (100ng/kg, iv) in conscious normotensive rat at 3 mg/kg dose specified 24 hr after peroral administration; assay type: functional; settings: route oral
Rattus norvegicus [17] = assay: In vivo potency to inhibit the pressor responses induced by angiotensin II (100ng/kg, iv) in conscious normotensive rat at 3 mg/kg dose specified 6 hr upon peroral administration; assay type: functional; settings: route oral
Rattus norvegicus [18] = assay: Antihypertensive effect as reduction in blood pressure in renal hypertensive rats at 3 mg/kg dose specified administered perorally; assay type: functional; design: scale not given: the % may be the effect or the level left; settings: route oral
Rattus norvegicus [19] = assay: In vivo potency to inhibit the pressor response induced by angiotensin II (100ng/Kg, iv) in conscious normotensive rat at 24 hours after administration of 0.1 mg/kg, po
Rattus norvegicus [20] = assay: Compound was tested for antihypertensive effect in renal hypertensive rats at 0.3 mg/kg, po expressed as percent reduction in blood pressure; assay type: functional
Rattus norvegicus [21] = assay: In vivo potency to inhibit the pressor response induced by angiotensin II (100ng/Kg, iv) in conscious normotensive rat at 6 hours after administration of 0.1 mg/kg, po

Work on `CCc1nn(Cc2ccc(-c3ccccc3-c3nn[nH]n3)cc2)/c(=N/C(=O)c2ccccc2Cl)s1` yielded an IC50 [1] of 3.6 nM, an inhibition in vivo at 3 mg/kg (Rattus norvegicus [2]) of 21.3% and a Reduction (Rattus norvegicus [3]) of 20.2%. The inhibition in vivo at 3 mg/kg (Rattus norvegicus [4]) was -11.3%.

With `CCc1nn(Cc2ccc(-c3ccccc3-c3nn[nH]n3)cc2)/c(=N/C(=O)C2=C(C(=O)O)CCC2)s1` the IC50 [1] was 0.44 nM, the Reduction (Rattus norvegicus [5]) was 44.3% and the Inhibition (Rattus norvegicus [2]) was 39.5%. The Reduction (Rattus norvegicus [6]) was 33.5%, the Inhibition (Rattus norvegicus [7]) was 36.6% and the Inhibition (Rattus norvegicus [4]) was 63.1%. For the same compound, the Inhibition (Rattus norvegicus [8]) was 36.4%, the Inhibition (Rattus norvegicus [9]) was 22.4% and the inhibition in vivo at 0.3 mg/kg (Rattus norvegicus [10]; Rattus norvegicus, po, 24 h) was 15%.

Work on `CCc1nn(Cc2ccc(-c3ccccc3-c3nn[nH]n3)cc2)/c(=N/C(=O)c2ccccc2)s1` yielded an IC50 [1] of 37 nM, an inhibition in vivo at 3 mg/kg (Rattus norvegicus [2]) of 4.9% and an inhibition in vivo at 3 mg/kg (Rattus norvegicus [4]) of -0.4%.

`CCCCc1nc(Cl)c(CO)n1Cc1ccc(-c2ccccc2-c2nnn[n-]2)cc1.[K+]` [LOSARTAN POTASSIUM] showed an Activity (Rattus norvegicus [11]) of 40.4%, an inhibition in vivo at 1 mg/kg (Rattus norvegicus [12]) of 7.3% and an inhibition in vivo at 10 mg/kg (Rattus norvegicus [13]) of 74.2%. For the same compound, the inhibition in vivo at 10 mg/kg (Rattus norvegicus [14]) was 57.4%, the inhibition in vivo at 1 mg/kg (Rattus norvegicus [15]) was 19.3% and the inhibition in vivo at 3 mg/kg (Rattus norvegicus [16]) was 27.9%. It also gave an inhibition in vivo at 3 mg/kg (Rattus norvegicus [17]) of 50.1% and an Activity (Rattus norvegicus [18]) of 27.4%.

In the case of `CCc1nn(Cc2ccc(-c3ccccc3-c3nn[nH]n3)cc2)/c(=N/C(=O)c2ccccc2C(=O)O)s1`, the IC50 [1] is reported as 0.66 nM, the Reduction (Rattus norvegicus [5]) is reported as 25.1% and the inhibition in vivo at 3 mg/kg (Rattus norvegicus [2]) is reported as 48.1%. The Reduction (Rattus norvegicus [3]) was 33.8% and the inhibition in vivo at 3 mg/kg (Rattus norvegicus [4]) was 23.2%.

Work on `CCc1nn(Cc2ccc(-c3ccccc3-c3nn[nH]n3)cc2)/c(=N/C(C)=O)s1` yielded an IC50 [1] of 7.2 nM, an inhibition in vivo at 3 mg/kg (Rattus norvegicus [2]) of 11.3% and an inhibition in vivo at 3 mg/kg (Rattus norvegicus [4]) of -10.3%.

For `CCc1nn(Cc2ccc(-c3ccccc3-c3nn[nH]n3)cc2)/c(=N/C(=O)C2=C(C(=O)[O-])CCC2)s1.[K+]`, the Inhibition (Rattus norvegicus [19]) was -0.7%, the Reduction (Rattus norvegicus [6]) was 38.4% and the Inhibition (Rattus norvegicus [7]) was 57%. For the same compound, the Reduction (Rattus norvegicus [20]) was 27.2%, the Inhibition (Rattus norvegicus [21]) was 11.4% and the Inhibition (Rattus norvegicus [8]) was 72.1%. The Inhibition (Rattus norvegicus [9]) was 45.4% and the Inhibition (Rattus norvegicus [10]) was 20.7%.

`CCc1nn(Cc2ccc(-c3ccccc3-c3nn[nH]n3)cc2)/c(=N/C(=O)C2CC2)s1` gave an IC50 [1] of 6.5 nM, an inhibition in vivo at 3 mg/kg (Rattus norvegicus [2]) of 7.8% and an inhibition in vivo at 3 mg/kg (Rattus norvegicus [4]) of -12.4%.
